What is called IC50 is the concentration needed to halve the response being measured.

This is an account of results in patent US20230340011A1 (Asteroid Therapeutics, priority 2022, published 2023).

In one experiment the target is LXRβ (Homo sapiens (Human), UniProt P55055). The experiment can be described thus: In vitro assay LXRβ: PathHunter NHR CHO cells, LXRβ / Steroid Receptor Co-activator Peptide enzyme fragment complementation. As to conditions: PathHunter NHR CHO cells, full-length human LXRβ and SRCP, chemiluminescent signal; read-out: LXRβ PPI. The class given is cell-based. The method, boiled down: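 Co-activator recruitment measured by chemiluminescence after signal generation. The CHO line carries full-length human LXRβ tagged with ProLink and an SRCP–enzyme acceptor fusion in the nucleus; cells sat overnight at 37° C before testing, in charcoal-dextran filtered serum medium with 1% final vehicle.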

Another experiment concerns the target SREBP-2 (Homo sapiens (Human), UniProt Q12772). Nature of the experiment: In vitro assay SREBP-2: PathHunter U2OS SREBP-2 Nuclear Translocation Cell Line, U18666A-stimulated. The class given is cell-based. As to conditions: PathHunter U2OS SREBP-2 nuclear translocation cells, U18666A 10 μM, overnight (16 hours).

The structures appear in SMILES notation.

Chain of LXRβ (P55055 whole entry, the tested form may be a part): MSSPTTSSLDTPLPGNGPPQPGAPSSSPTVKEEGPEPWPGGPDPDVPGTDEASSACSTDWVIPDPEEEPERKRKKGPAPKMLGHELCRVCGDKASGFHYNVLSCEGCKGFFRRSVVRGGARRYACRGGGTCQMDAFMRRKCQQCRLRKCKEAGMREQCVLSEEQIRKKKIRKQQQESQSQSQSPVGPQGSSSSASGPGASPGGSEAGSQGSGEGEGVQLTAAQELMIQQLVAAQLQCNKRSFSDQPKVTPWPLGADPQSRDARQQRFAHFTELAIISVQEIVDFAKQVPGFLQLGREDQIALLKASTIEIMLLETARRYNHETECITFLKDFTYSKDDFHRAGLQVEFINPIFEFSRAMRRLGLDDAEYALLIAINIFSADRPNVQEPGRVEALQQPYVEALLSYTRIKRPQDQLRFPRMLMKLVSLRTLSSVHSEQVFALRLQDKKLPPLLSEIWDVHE

Take `COc1ccc(CC[C@@H](C)[C@H]2CC[C@H]3[C@@H]4CC=C5C[C@@H](O)CC[C@]5(C)[C@H]4CC[C@]23C)nc1` [Example 601, (1R,3aS,3bS,7S,9aR,9bS,11aR)-1-[(2R)-4-(5-methoxypyridin-2-yl)butan-2-yl]-9a,11a-dimethyl-1H,2H,3H,3aH,3bH,4H,6H,7H,8H,9H,9aH,9bH,10H,11H,11aH-cyclopenta[a]phenanthren-7-ol]: on LXRβ, the EC50 lay within 1000 to 10000 nM. For the same compound, the IC50 against SREBP-2 was in the range of 250 to 1000 nM.
`COc1ccnc(CC[C@@H](C)[C@H]2CC[C@H]3[C@@H]4CC=C5C[C@@H](O)CC[C@]5(C)[C@H]4CC[C@]23C)c1` [Example 602, (3S,8S,9S,10R,13R,14S,17R)-17-((R)-4-(4-methoxypyridin-2-yl)butan-2-yl)-10,13-dim ethyl-2,3,4,7,8,9,10,11,12,13,14,15,16,17-tetradecahydro-1H-cyclopenta[a]phenanthren-3-ol]: the EC50 at LXRβ fell in the range of 250 to 1000 nM. On SREBP-2, this compound gave an IC50 of less than 250 nM.
The matching figures for `Cc1c(N2CCN(C(=O)CC[C@@H](C)[C@H]3CC[C@H]4[C@@H]5CC=C6C[C@@H](O)CC[C@]6(C)[C@H]5CC[C@]34C)CC2)cnn1C` [Example 603, (R)-1-(4-(1,5-dimethyl-1H-pyrazol-4-yl)piperazin-1-yl)-4-((3S,8S,9S,10R,13R,14S,17R)-3-hydroxy-10,13-dimethyl-2,3,4,7,8,9,10,11,12,13,14,15,16,17-tetradecahydro-1H-cyclopenta[a]phenanthren-17-yl)pentan-1-one]: greater than 10000 nM and less than 250 nM.
Turning to `Cc1nn(C)cc1N1CCN(C(=O)CC[C@@H](C)[C@H]2CC[C@H]3[C@@H]4CC=C5C[C@@H](O)CC[C@]5(C)[C@H]4CC[C@]23C)CC1` [Example 604, (4R)-4-[(1R,3aS,3bS,7S,9aR,9bS,11aR)-7-hydroxy-9a,11a-dimethyl-1H,2H,3H,3aH,3bH,4H,6H,7H,8H,9H,9aH,9bH,10H,11H,11aH-cyclopenta[a]phenanthren-1-yl]-1-[4-(1,3-dimethyl-1H-pyrazol-4-yl)piperazin-1-yl]pentan-1-one], the EC50 on LXRβ is greater than 10000 nM. This compound also gave an IC50 against SREBP-2 of less than 250 nM.
In the case of `C[C@H](CCC(=O)N1CCN(c2ncnn2C)CC1)[C@H]1CC[C@H]2[C@@H]3CC=C4C[C@@H](O)CC[C@]4(C)[C@H]3CC[C@]12C` [Example 605, (R)-4-((3S,8S,9S,10R,13R,14S,17R)-3-hydroxy-10,13-dimethyl-2,3,4,7,8,9,10,11,12,13,14,15,16,17-tetradecahydro-1H-cyclopenta[a]phenanthren-17-yl)-1-(4-(1-methyl-1H-1,2,4-triazol-5-yl)piperazin-1-yl)pentan-1-one], the EC50 on LXRβ was greater than 10000 nM. The IC50 against SREBP-2 is less than 250 nM.
On to `C[C@H](CCC(=O)N1CCN(c2nnnn2C)CC1)[C@H]1CC[C@H]2[C@@H]3CC=C4C[C@@H](O)CC[C@]4(C)[C@H]3CC[C@]12C` [Example 606, (R)-4-((3S,8S,9S,10R,13R,14S,17R)-3-hydroxy-10,13-dimethyl-2,3,4,7,8,9,10,11,12,13,14,15,16,17-tetradecahydro-1H-cyclopenta[a]phenanthren-17-yl)-1-(4-(1-methyl-1H-tetrazol-5-yl)piperazin-1-yl)pentan-1-one], for which the EC50 at LXRβ is greater than 10000 nM. In addition, the IC50 at SREBP-2 is less than 250 nM.
As for `Cc1ncsc1N1CCN(C(=O)CC[C@@H](C)[C@H]2CC[C@H]3[C@@H]4CC=C5C[C@@H](O)CC[C@]5(C)[C@H]4CC[C@]23C)CC1` [Example 607, (R)-4-((3S,8S,9S,10R,13R,14S,17R)-3-hydroxy-10,13-dimethyl-2,3,4,7,8,9,10,11,12,13,14,15,16,17-tetradecahydro-1H-cyclopenta[a]phenanthren-17-yl)-1-(4-(4-methylthiazol-5-yl)piperazin-1-yl)pentan-1-one], on LXRβ, the EC50 is greater than 10000 nM. Besides, the IC50 against SREBP-2 is less than 250 nM.
For `C[C@H](CCC(=O)N1CCN(c2ccnn2C)[C@@H](C)C1)[C@H]1CC[C@H]2[C@@H]3CC=C4C[C@@H](O)CC[C@]4(C)[C@H]3CC[C@]12C` [Example 608, (R)-4-((3S,8S,9S,10R,13R,14S,17R)-3-hydroxy-10,13-dimethyl-2,3,4,7,8,9,10,11,12,13,14,15,16,17-tetradecahydro-1H-cyclopenta[a]phenanthren-17-yl)-1-((S)-3-methyl-4-(1-methyl-1H-pyrazol-5-yl)piperazin-1-yl)pentan-1-one], at LXRβ, the EC50 is greater than 10000 nM. This compound yielded an IC50 against SREBP-2 of less than 250 nM.
For `C[C@H](CCC(=O)N1CCN(c2ccnn2C)C[C@@H]1C)[C@H]1CC[C@H]2[C@@H]3CC=C4C[C@@H](O)CC[C@]4(C)[C@H]3CC[C@]12C` [Example 609, (R)-4-((3S,8S,9S,10R,13R,14S,17R)-3-hydroxy-10,13-dimethyl-2,3,4,7,8,9,10,11,12,13,14,15,16,17-tetradecahydro-1H-cyclopenta[a]phenanthren-17-yl)-1-((S)-2-methyl-4-(1-methyl-1H-pyrazol-5-yl)piperazin-1-yl)pentan-1-one], in that order: greater than 10000 nM and less than 250 nM.
Regarding `COc1nccnc1N1CCN(C(=O)CC[C@@H](C)[C@H]2CC[C@H]3[C@@H]4CC=C5C[C@@H](O)CC[C@]5(C)[C@H]4CC[C@]23C)CC1` [Example 610, (R)-4-((3S,8S,9S,10R,13R,14S,17R)-3-hydroxy-10,13-dimethyl-2,3,4,7,8,9,10,11,12,13,14,15,16,17-tetradecahydro-1H-cyclopenta[a]phenanthren-17-yl)-1-(4-(3-methoxypyrazin-2-yl)piperazin-1-yl)pentan-1-one], the EC50 on LXRβ is greater than 10000 nM. Further, the IC50 on SREBP-2 is less than 250 nM.
With `COc1ccncc1N1CCN(C(=O)CC[C@@H](C)[C@H]2CC[C@H]3[C@@H]4CC=C5C[C@@H](O)CC[C@]5(C)[C@H]4CC[C@]23C)CC1` [Example 611, (R)-4-((3S,8S,9S,10R,13R,14S,17R)-3-hydroxy-10,13-dimethyl-2,3,4,7,8,9,10,11,12,13,14,15,16,17-tetradecahydro-1H-cyclopenta[a]phenanthren-17-yl)-1-(4-(4-methoxypyridin-3-yl)piperazin-1-yl)pentan-1-one], on LXRβ, the EC50 was greater than 10000 nM. The same compound registered an IC50 at SREBP-2 of less than 250 nM.
The matching figures for `COc1ncccc1N1CCN(C(=O)CC[C@@H](C)[C@H]2CC[C@H]3[C@@H]4CC=C5C[C@@H](O)CC[C@]5(C)[C@H]4CC[C@]23C)CC1` [Example 612, (R)-4-((3S,8S,9S,10R,13R,14S,17R)-3-hydroxy-10,13-dimethyl-2,3,4,7,8,9,10,11,12,13,14,15,16,17-tetradecahydro-1H-cyclopenta[a]phenanthren-17-yl)-1-(4-(2-methoxypyridin-3-yl)piperazin-1-yl)pentan-1-one]: greater than 10000 nM and less than 250 nM.
Regarding `COc1cccnc1N1CCN(C(=O)CC[C@@H](C)[C@H]2CC[C@H]3[C@@H]4CC=C5C[C@@H](O)CC[C@]5(C)[C@H]4CC[C@]23C)CC1` [Example 613, (R)-4-((3S,8S,9S,10R,13R,14S,17R)-3-hydroxy-10,13-dimethyl-2,3,4,7,8,9,10,11,12,13,14,15,16,17-tetradecahydro-1H-cyclopenta[a]phenanthren-17-yl)-1-(4-(3-methoxypyridin-2-yl)piperazin-1-yl)pentan-1-one], the EC50 at LXRβ was greater than 10000 nM. Further, the IC50 against SREBP-2 was less than 250 nM.
Regarding `COc1ncncc1N1CCN(C(=O)CC[C@@H](C)[C@H]2CC[C@H]3[C@@H]4CC=C5C[C@@H](O)CC[C@]5(C)[C@H]4CC[C@]23C)CC1` [Example 614, (4R)-4-[(1R,3aS,3bS,7S,9aR,9bS,11aR)-7-hydroxy-9a,11a-dimethyl-1H,2H,3H,3aH,3bH,4H,6H,7H,8H,9H,9aH,9bH,10H,11H,11aH-cyclopenta[a]phenanthren-1-yl]-1-[4-(4-methoxypyrimidin-5-yl)piperazin-1-yl]pentan-1-one], on LXRβ, the EC50 was greater than 10000 nM. For the same compound, at SREBP-2, the IC50 is less than 250 nM.
With `COc1cncnc1N1CCN(C(=O)CC[C@@H](C)[C@H]2CC[C@H]3[C@@H]4CC=C5C[C@@H](O)CC[C@]5(C)[C@H]4CC[C@]23C)C[C@@H]1C` [Example 615, (R)-4-((3S,8S,9S,10R,13R,14S,17R)-3-hydroxy-10,13-dimethyl-2,3,4,7,8,9,10,11,12,13,14,15,16,17-tetradecahydro-1H-cyclopenta[a]phenanthren-17-yl)-1-((S)-4-(5-methoxypyrimidin-4-yl)-3-methylpiperazin-1-yl)pentan-1-one], the EC50 on LXRβ is greater than 10000 nM. This compound also had an IC50 against SREBP-2 of less than 250 nM.
For `COc1cncnc1N1CCN(C(=O)CC[C@@H](C)[C@H]2CC[C@H]3[C@@H]4CC=C5C[C@@H](O)CC[C@]5(C)[C@H]4CC[C@]23C)[C@@H](C)C1` [Example 616, (R)-4-((3S,8S,9S,10R,13R,14S,17R)-3-hydroxy-10,13-dimethyl-2,3,4,7,8,9,10,11,12,13,14,15,16,17-tetradecahydro-1H-cyclopenta[a]phenanthren-17-yl)-1-((S)-4-(5-methoxypyrimidin-4-yl)-2-methylpiperazin-1-yl)pentan-1-one], in that order: greater than 10000 nM and less than 250 nM.
For `COc1ncc(OC)c(N2CCN(C(=O)CC[C@@H](C)[C@H]3CC[C@H]4[C@@H]5CC=C6C[C@@H](O)CC[C@]6(C)[C@H]5CC[C@]34C)CC2)n1` [Example 617, (R)-1-(4-(2,5-dimethoxypyrimidin-4-yl)piperazin-1-yl)-4-((3S,8S,9S,10R,13R,14S,17R)-3-hydroxy-10,13-dimethyl-2,3,4,7,8,9,10,11,12,13,14,15,16,17-tetradecahydro-1H-cyclopenta[a]phenanthren-17-yl)pentan-1-one], in that order: greater than 10000 nM and less than 250 nM.
